Values of other authors as cited in patent US20260337208A1, “HETEROCYCLIC DERIVATIVES AS JANUS KINASE INHIBITORS” (CHIESI FARMACEUTICI S.P.A., priority 2022, published 2026).

Key:
[1] = system: house dust mite mouse model of asthma; details: formulated for being administered as aerosol; cited from earlier work
[2] = in combination with nintedanib; case report; cited from earlier work
[3] = in vivo; cited from earlier work
[4] = system: mouse model of chronic exposure to AAH allergens; details: cited from earlier work
OVA-challenged mice = details: given as dry powder; cited from earlier work
[5] = RA patients, including a subgroup with interstitial lung disease; cited from earlier work
[6] = cited from earlier work; for admission rate of the intensive care unit / incidence of acute respiratory distress syndrome (ARDS) / risk of mortality / use of invasive mechanical ventilation: COVID-19
[7] = bleomycin-induced fibrosis mouse model; cited from earlier work

C[C@@H]1CCN(C(=O)CC#N)C[C@@H]1N(C)c1ncnc2[nH]ccc12 [tofacitinib]
eosinophils count [1]: reduced eosinophils count
efficacy and safety in aggressive interstitial lung disease [2]: corroborated the efficacy and safety
preventive effect in experimental dermal and pulmonary fibrosis [3]: acted as a preventive agent

CN(CCC#N)C1CCN(C(=O)Cn2cc(NC(=O)c3cnn4cccnc34)c(-c3cc(Cl)ccc3OC(F)F)n2)CC1 [iJak-381]
BAL eosinophilia [4]: reduced
CCL11 [4]: reduced
CXCL1 [4]: reduced
neutrophilia [4]: reduced
BAL eosinophilia (OVA-challenged mice): reduced
CCL11 (OVA-challenged mice): reduced
Muc5AC (OVA-challenged mice): reduced
airway resistance (OVA-challenged mice): reduced

CCS(=O)(=O)N1CC(CC#N)(n2cc(-c3ncnc4[nH]ccc34)cn2)C1 [Baricitinib, baricitinib]
biomarkers' levels of lung fibrosis and inflammation [5]: reduces the biomarkers' levels of lung fibrosis and inflammation
safety as immune modulator [5]: safe immune modulator
admission rate of the intensive care unit [6]: borderline impact
incidence of acute respiratory distress syndrome (ARDS) [6]: borderline impact
risk of mortality [6]: reduced risk of mortality
use of invasive mechanical ventilation [6]: reduced the use of invasive mechanical ventilation

N#CC[C@H](C1CCCC1)n1cc(-c2ncnc3[nH]ccc23)cn1 [Ruxolitinib, ruxolitinib]
fibrotic lesions in lung [7]: ameliorated the fibrotic lesions in lung
levels of fibrotic molecular markers [7]: reduced levels of fibrotic molecular markers
admission rate of the intensive care unit [6]: borderline impact
incidence of acute respiratory distress syndrome (ARDS) [6]: borderline impact
risk of mortality [6]: reduced risk of mortality
use of invasive mechanical ventilation [6]: reduced the use of invasive mechanical ventilation
clinical symptoms and chest computed tomography images ([6]; COVID-19 patients): improved the clinical symptoms and chest computed tomography images
